# From BindingDB's records for doi:10.3109/14756366.2011.566221 (Instituto Politécnico Nacional, 2011)
# Experiments:
# Assay in all cases: LDH Activity Assay
# Details in all cases: pH 7.4
# [1] = target: L-lactate dehydrogenase A chain (Mus musculus, UniProt P06151)
# Experimental: (§1) Lactate dehydrogenase activity was determined by recording the absorbance change at 340 nm produced by the oxidation of NADH. Assays were performed at 37°C. The reagent mixture contained 0.115 mM NADH, 50 mM sodium phosphate buffer, pH 7.4, sodium pyruvate (0.31 mM for LDH-C4 and LDH-B4 and 1.25 mM for LDH-A4) and the enzyme preparation, diluted with phosphate buffer, pH 7.4, to provide a ΔE340 of 0.06-0.07 per minute when the activity was assayed in a 1-cm light path. For determination of dissociation constants, the isozymes, the inhibitors (oxamate or oxamate derivatives) and the coenzyme were incubated with the buffer used in the assay for 10 min at 37°C before adding the substrate.
# [2] = target: L-lactate dehydrogenase B chain (Mus musculus, UniProt P16125)
# Sequence of L-lactate dehydrogenase B chain (P16125 whole entry): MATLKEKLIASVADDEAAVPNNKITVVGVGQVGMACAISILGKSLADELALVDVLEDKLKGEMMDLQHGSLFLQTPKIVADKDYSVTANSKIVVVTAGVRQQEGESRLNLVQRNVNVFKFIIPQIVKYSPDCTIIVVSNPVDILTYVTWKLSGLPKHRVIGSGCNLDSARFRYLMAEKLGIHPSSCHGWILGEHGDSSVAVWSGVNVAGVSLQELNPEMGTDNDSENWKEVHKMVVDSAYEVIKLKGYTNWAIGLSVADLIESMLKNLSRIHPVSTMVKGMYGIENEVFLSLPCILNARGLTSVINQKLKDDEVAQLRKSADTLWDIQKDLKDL
# Experimental: as §1
# [3] = target: L-lactate dehydrogenase C chain (Mus musculus, UniProt P00342)
# Sequence of L-lactate dehydrogenase C chain (P00342 whole entry): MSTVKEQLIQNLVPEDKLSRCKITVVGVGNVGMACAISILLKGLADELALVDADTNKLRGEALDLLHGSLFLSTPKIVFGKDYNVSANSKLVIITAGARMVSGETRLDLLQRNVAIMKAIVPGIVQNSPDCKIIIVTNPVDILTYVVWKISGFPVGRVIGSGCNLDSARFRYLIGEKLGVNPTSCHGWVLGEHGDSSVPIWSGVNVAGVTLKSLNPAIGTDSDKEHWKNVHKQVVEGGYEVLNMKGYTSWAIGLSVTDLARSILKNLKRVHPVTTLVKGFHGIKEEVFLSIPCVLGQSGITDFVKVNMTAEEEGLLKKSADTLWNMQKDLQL
# Experimental: as §1
SMILES,Ki [1],Ki [2],Ki [3]
CCCCNC(=O)C(=O)O [N-Butyl oxamate],9100 µM,7000 µM,750 µM
CC(C)CNC(=O)C(=O)O [N-Isobutyl oxamate],6000 µM,7000 µM,2000 µM
CCC(C)NC(=O)C(=O)O (stereo not drawn) [N-sec-Butyl oxamate],12500 µM,14500 µM,400 µM
NC(=O)C(=O)O [carbamoylformic acid],80 µM,60 µM,30 µM

# Other lines, results leading:
Ki [1],Ki [2],Ki [3],SMILES
140 µM,35 µM,2 µM,CCNC(=O)C(=O)O [N-Ethyl oxamate]
1750 µM,887 µM,12 µM,CCCNC(=O)C(=O)O [N-Propyl oxamate]
